Format in all cases: cell-based
Experiment [1] relates to MCF-7 estrogen receptor-positive breast cancer cells. The experiment is described as follows: CELLTITER-GLO luminescent cell viability assay, MCF-7. Particulars: MCF-7 cells, 72 h at 37° C. As to the method: (§1) The derivatives were examined for their cytotoxic effects on MCF-7 estrogen receptor-positive breast cancer cells, MDA-MB-231 estrogen receptor-negative breast cancer cell line, and Ishikawa cells, using the CELLTITER-GLO (CTG)® luminescent cell viability assay. All the compounds are tested in the three cell lines. Different concentration of compounds, ranging from about 0.01 nM to about 100,000 nM were delivered to 5×10^3 cells per well, which were then incubated for three days at 37° C., followed by the CTG assay.
(§2) Compounds Redda-GM-2-50, Redda-GM-2-55, and Redda-GM-2-58 were tested for their cytotoxic effects on MCF-7 estrogen receptor-positive breast cancer cells, MDA-MB-231 estrogen receptor-negative breast cancer cell line, and Ishikawa cells, using the CELLTITER-GLO® luminescent cell viability assay (Promega, Madison, Wis.) following the manufacturer's instruction.
(§3) CELLTITER-GLO® is a homogeneous method based on the quantification of ATP, which is an indicator of metabolically active cells. In this assay, the number of viable cells in culture is determined based on the quantification of ATP present, which signals the presence of metabolically active cells. Damaged cells are not detected as the ATP leaked from these cells is quickly consumed by ATPases that are also released upon damage). The amount of ATP is determined using a system based on luciferase and D-luciferin resulting in light generation.
(§4) The cell lines were plated in 13, 96 well plates at a density of 5000 cells/well in total volumes of 50 μL in phenol-red free medium and incubated for overnight. […]
(§5) Drug-exposed cells were incubated or 72 h at 37° C. in a 5% CO2 incubator, after which the plates were removed for CELLTITER-GLO® assay and equilibrated at room temperature for 30 min. […] Luminescence results were read on TriLux Luminometer. […] Data were expressed as percentage of untreated control (i.e. treatment value-blank/vehicle value blank), mean±SE for three replications.

Experiment [2] concerns MDA-MB-231 estrogen receptor-negative breast cancer cell line. The experiment is described as follows: CELLTITER-GLO luminescent cell viability assay, MDA-MB-231. Particulars: MDA-MB-231 cells, 72 h at 37° C. On the procedure:
as §1, §2, §3, §4, §5
(In general: Cellular ATP, detected with luciferase, serves as a proxy for viable cell number.)

Experiment [3] has as its system Ishikawa cells. The experiment is described as follows: CELLTITER-GLO luminescent cell viability assay, Ishikawa. The settings on record: 72 h at 37° C. On the procedure:
as §1, §2, §3, §4, §5

In general, IC50 refers to the concentration that gives 50% inhibition. Low readings indicate inhibition by little substance, high ones a need for much substance.

With “3-((1H-pyrrol-1-yl)methyl)-1-(4-methoxyphenylsulfonamido)pyridinium Ylide [Redda-GM-2-58]”, the results for the IC50 in experiment [1], in experiment [2] and in experiment [3] were 49 µM, 53 µM and 28 µM, respectively.
As for “3-((1H-pyrrol-1-yl)methyl)-1-(4-methylphenylsulfonamido)pyridinium Ylide [Redda-GM-2-55]”, the concentration for half-maximal inhibition (IC50) in experiment [1] is 31.8 µM; in experiment [2] it was 83.6 µM; in experiment [3], 78.5 µM.
For “3-((1H-pyrrol-1-yl)methyl)-1-(phenylsulfonimido)pyridinium Ylide [Redda-GM-2-50]”, the IC50 is 47 µM in experiment [1], 44 µM in experiment [2] and 28 µM in experiment [3].

These data come from patent publication US8476303B2, “N-aminopyrrolylmethyltetrahydropyridines as anti-cancer agents” (Florida A&M University Board of Trustees, priority 2011, dated 2013).
